From ChEMBL document CHEMBL3507680, “University of Dundee, Gates Library screen for HepG2 cell viability”

Test: Human HepG2 cell viability assay in 384 well format
Format: toxicity, cell-based
Set-up: dose 125 nL, time 70.5 hour; cytotoxicity at 70.5 h: concentration not given beside the values
Conditions: HepG2 cells, read-out: Inhibition

Compound	cytotoxicity at 70.5 h [%]
COCCNC(=O)N1CCN(C(C)C(=O)NC(C)C)CC1 (stereo unspecified)	-5.13
Cc1ccc(=O)n(Cc2nc(C(C)OCC(C)C)no2)n1 (stereo unspecified)	3.26
CC(C)(NS(C)(=O)=O)C(=O)NCc1cccc(Br)c1	-7.07
COCCNC(=O)N1CCN(C(C)C(=O)NC2CCCC2)CC1 (stereo unspecified)	-5.61
CCC(CC)c1cc(C(=O)N2CCN(C(C)C(N)=O)CC2)on1 (stereo unspecified)	-7.02
CCOc1nnc(CN2CCCC(c3nc4ccccc4[nH]3)C2)s1 (stereo unspecified)	-3.56
CN(CC(=O)Nc1cc(-n2nnnc2C2CC2)ccc1F)C1CCC1	-8.29
CN1CCOC(C(=O)Nc2nc(-c3ccc4c(c3)CCC4)n[nH]2)C1 (stereo unspecified)	-6.75
CC(Cc1ccco1)NS(=O)(=O)N1CCCCCC1 (stereo unspecified)	-8.2
CC(CN1CCCC1=O)NC(=O)Nc1ccccc1Cn1cccn1 (stereo unspecified)	-5.84
CC(CN1CCCC1=O)NC(=O)Nc1cccnc1-n1cccn1 (stereo unspecified)	35.4
Cc1cc(-n2c(C)cn(CN(C)C3CCS(=O)(=O)C3)c2=O)no1 (stereo unspecified)	-14.6
COC(=O)[C@H](C)NC(=O)c1nc(C2CC2)n(-c2ccccc2Cl)n1	-11.3
CN(C)C(=O)CNC(=O)c1nc(C2CC2)n(-c2ccccc2Cl)n1	-13.7
Cc1ccc(C2CSCCN2C(=O)c2cccnc2)cc1 (stereo unspecified)	-9.38
CNC(=O)Cc1ccc(NC(=O)NC2(c3cccc(F)c3)CC2)cc1	-3.37
CC(O)CCN(C)C(=O)Nc1ccc(Br)cc1 (stereo unspecified)	26.9
CCC(C)(C)C(=O)Nc1ccc2ccn(CC(=O)NC)c2c1	-0.594
CNC(=O)Cn1ccc2ccc(NC(=O)C(C)C)cc21	-16.4
COc1ccc(-n2cc(CNC(=O)c3ccccn3)nn2)cc1	-8.76
CN(CC(O)C1CC1)C(=O)Nc1cc(F)cc(Br)c1 (stereo unspecified)	26.3
CNC(=O)Cn1ccc2ccc(NC(=O)NC(C)C(C)C)cc21 (stereo unspecified)	-9.08
O=S1(=O)CCN(CCCc2ccc(Cl)cc2)CC1	-6.76
CNC(=O)C(C)CN(C)C(=O)Nc1cc(F)cc(Br)c1 (stereo unspecified)	1.41
Clc1ccc(C(CNCc2ccncc2)n2cccn2)cc1 (stereo unspecified)	-1.54

Compound	cytotoxicity at 70.5 h [%]
CC(CN1CCCC1=O)NC(=O)NCc1ccccc1-n1cccn1 (stereo unspecified)	-11.4
CC(=O)Nc1ccc(SCC(O)COCc2ccccc2)cc1 (stereo unspecified)	-12.4
OCCN(Cc1ccno1)Cc1cc(Br)ccc1F	-14.1
CCOCC1CCN(C(=O)C(c2c(F)cccc2F)N(C)C)CC1 (stereo unspecified)	0.534
O=C1CC[C@H](C(=O)N(CCc2ccccc2)C2CCOC2)N1 (stereo partly specified)	24.8
OCCOCCN1CCCC1c1cccc(Cl)c1 (stereo unspecified)	-3.17
CC(NC1(CNS(=O)(=O)N(C)C)CCCC1)c1ccccc1 (stereo unspecified)	-13.2
CC(SCCC(=O)NC(N)=O)c1ccccc1F (stereo unspecified)	-7.35
CC(SCCC(=O)NC(N)=O)c1ccc(F)cc1F (stereo unspecified)	-14.8
CCCC1CCCN(C(=O)CNC(=O)c2ccoc2C)CC1 (stereo unspecified)	-18.9
CC(C)c1noc(CCC(=O)NCC(c2ccco2)N2CCCC2)n1 (stereo unspecified)	-7.17
Cc1ccc(-c2nnc(NC(=O)c3ccn(C)c(=O)c3)[nH]2)s1	-19.1
CC(=O)N1Cc2ccccc2C[C@H]1C(=O)N(C)CCc1ccccn1	19.3
O=C(C1CCS(=O)(=O)C1)N1CCC(=Cc2cccc(F)c2)CC1 (stereo unspecified)	-9.56
CCC(C)(O)CNC(=O)Nc1ccc(C)cc1Br (stereo unspecified)	-5.82
N#Cc1cccc(CS(=O)(=O)NC(Cc2ccccc2)C(N)=O)c1 (stereo unspecified)	-13.1
CCn1cc(C(=O)N(C)Cc2c(F)cccc2Cl)cn1	-2.9
Cc1nc(-c2ccc(S(=O)(=O)N3CCSC3)cc2)co1	-10.2
COc1ccc(S(=O)(=O)NC(=O)c2cscn2)cc1C	-13.6
CN1CCCC(N(C)C(=O)c2ccc(NC(=O)c3cc[nH]n3)cc2)C1 (stereo unspecified)	-0.159
CC(CNC(=O)CCc1ccccn1)c1ccsc1 (stereo unspecified)	-16.6
Cc1ccc(C(=O)N2CCOCC2)cc1NCc1ccsc1	-12.3
Cc1ccc(C2CN(C(=O)NCc3nnc4ccccn34)CCO2)o1 (stereo unspecified)	-10.6
N#Cc1ccc(N2CCC(OC3CCOCC3)CC2)cc1Cl	1.95
COc1ccc(Br)cc1CN(C)C(C)c1nc(C)no1 (stereo unspecified)	-20.1

Compound	cytotoxicity at 70.5 h [%]
CCN(CC)CCCC(C)NC(=O)c1ccccc1-n1cccn1 (stereo unspecified)	-9.46
CC(C)COc1ccccc1C(N)CC(C)C (stereo unspecified)	-10.1
CC(O)C1CCN(c2cc(Cl)ccc2C#N)CC1 (stereo unspecified)	-14.2
CCOCCC(=O)NCC(C)c1ccsc1 (stereo unspecified)	-5.93
N#CCCN(Cc1ccco1)C(=O)CCCc1ccccc1	-4.22
CC(=O)N1CCC(C(=O)N2CCC(=Cc3cccc(F)c3)CC2)CC1	-11.3
CCNC(=O)CS(=O)(=O)NC1CCC(C)CC1 (stereo unspecified)	-14.8
NC(=O)c1cnn2c1NCC(CNC1(c3ccccc3)CCC1)C2 (stereo unspecified)	-9.04
c1ncc2c(n1)CN(c1ncnc3[nH]ccc13)CC2	-4.47
Cc1cccc(C(=O)NC(C(=O)NCc2ccc(O)nc2)C(C)C)c1 (stereo unspecified)	-10.8
Cc1nc(CCCNC(=O)Nc2ccc(F)cc2F)n[nH]1	-6.94
CC(CCc1ccc(F)c(F)c1)NS(=O)(=O)Cc1ccon1 (stereo unspecified)	20.5
CCNC(=O)NC(c1ccc(C)cc1)c1cccc(S(C)(=O)=O)c1 (stereo unspecified)	-11
Cc1ccc(OCC(C)NS(=O)(=O)Cc2ccon2)cc1 (stereo unspecified)	-9.91
CC(C)N(C(=O)Cn1nc2n(c1=O)CCCCC2)C1CCC1	-9.98
NC(=O)CCC1CCCN(c2ccc3ccc(F)cc3n2)C1 (stereo unspecified)	-3.15
Cc1ccn(CC(=O)NCCCOc2ccccc2F)c(=O)c1	-7.65
Cc1nn(C)c(C)c1C(=O)NC(C)CC(=O)c1cccs1 (stereo unspecified)	-11.1
Cc1c(C(=O)NC(C)CC(=O)c2cccs2)cnn1C (stereo unspecified)	19.6
CC(c1cccnc1)N(C)C(=O)NCCOc1ccc(C#N)cc1 (stereo unspecified)	-11.1
CC(C)CC(NCc1ccsc1)c1ccccn1 (stereo unspecified)	22.4
CC(C)CC(NCc1cscn1)c1ccccn1 (stereo unspecified)	-7.87
N#Cc1ccccc1CN1CCC(CN2CCOCC2)C1 (stereo unspecified)	-5.31
Nc1nccnc1C(=O)NC1CCN(Cc2ccccc2)C1 (stereo unspecified)	-10.2
O=C(CCc1nnc(-c2ccsc2)o1)NCC1CCN(C2CC2)C1 (stereo unspecified)	-4.06

Compound	cytotoxicity at 70.5 h [%]
O=C(CCc1nc(-c2cccnc2)no1)NCC1CCN(C2CC2)C1 (stereo unspecified)	-17.6
Cc1nnc(CN(Cc2cccc3c2OCO3)CC2CCCO2)n1C (stereo unspecified)	-19.6
O=C(Cn1cnc2ccsc2c1=O)c1ccc2c(c1)OCCO2	-8.67
NC(=O)CN(Cc1ncc(-c2ccc(F)cc2)o1)C1CCCC1	-14.2
Cc1cccnc1NC(=O)c1ccc(F)c(S(=O)(=O)NC2CC2)c1	-2.44
O=C(NCc1ccnc(OCC2CC2)c1)C1COc2ccccc2O1 (stereo unspecified)	0.151
CCc1cc(NCCCc2nc(C)no2)nc(-c2ccncc2)n1	-5.75
NC(=O)CC1CCN(Cc2ccccc2OCC(F)(F)F)CC1	-8.22
CCOc1cc(NC(=O)N2CCC3(CCOCC3)C2)ccc1C	-7.4
CCc1cc(NCCCNS(C)(=O)=O)nc(-c2ccncc2)n1	-9.08
CC(C)N(C)C(=O)C1CCN(Cc2cnc3ccccn23)CC1	-5.16
Cc1csc(CCNC(=O)N2CCC(NC(=O)OC(C)(C)C)CC2)n1	-11.5
Cc1csc(CCNC(=O)N2CCC(n3cccc3)CC2)n1	-7.68
N#CC1(NC(=O)c2cc(Cl)ccc2OC(F)F)CCOCC1	-17.7
CN(C(=O)C1CCN(Cc2cnc3ccccn23)CC1)c1ccccc1	-7.69
COc1ncc(NCc2ccc(C#N)cc2)cc1C(N)=O	-4.6
CN(CC(O)C(F)(F)F)C(=O)Nc1cccc(Cn2cccn2)c1 (stereo unspecified)	-6.9
COc1ncc(NCc2cc(C#N)cs2)cc1C(N)=O	-5.52
COc1ncc(NCc2ccc(F)cc2)cc1C(N)=O	-6.54
CN(CC(O)C(F)(F)F)C(=O)Nc1cccc(N2CCCC2)c1 (stereo unspecified)	-3.73
O=C(NCCc1nccs1)N1CCC(n2cccc2)CC1	-9.14
NCC(CO)Cc1cccc(OC(F)(F)F)c1 (stereo unspecified)	2.39
NCC(CO)Cc1ccc(OC(F)(F)F)cc1 (stereo unspecified)	-5.55
CN(C)c1cc(CNC(=O)C2COc3ccccc3O2)ccn1 (stereo unspecified)	-6.63
CN(C(=O)c1ccc(Cl)cn1)c1ccccc1S(C)(=O)=O	-5.72

Compound	cytotoxicity at 70.5 h [%]
Cc1oncc1NS(=O)(=O)c1c[nH]c2ncccc12	-3.88
CCN(CC)CCSc1ncnc2[nH]ncc12	1.79
CC(C)(C)C(=O)NCCNCc1ccc(Cl)c2cccnc12	-0.239
CCOc1ccccc1N(C)C(=O)c1cscn1	0.806
CCCN1Cc2ccccc2CC1C(=O)NC (stereo unspecified)	-0.114
CC(C)COc1cncc(NCC(O)c2ccco2)n1 (stereo unspecified)	33.1
Cc1nn(C)c(C)c1OCC(=O)NCC(O)c1ccccc1F (stereo unspecified)	0.771
CNC(=O)C1Cc2ccccc2CN1CCCc1ccccc1 (stereo unspecified)	-4.46
COc1ccc(C#N)cc1CSCCN1CCOCC1	-9.88
N#Cc1ccc(CSCCN2CCOCC2)cc1	-5.15
N#Cc1ccc(F)c(CSCCN2CCOCC2)c1	-7.03
Cc1nc(C)n(CC2CCCCN2CCCC#N)n1 (stereo unspecified)	6.75
c1ccc(CCN2CCCC(c3noc(C4CC4)n3)C2)cc1 (stereo unspecified)	-5.63
CC(=O)N1CCC(C(=O)Nc2nc(C3CC3)cs2)CC1	-4.64
Cc1cc(Br)oc1C(=O)N1CCCN(CC(N)=O)CC1	-7.35
CCN(CC)C(C)CNC(=O)c1cccnc1Oc1cccnc1 (stereo unspecified)	-5.14
COc1ccc(C(CO)NC(=O)Nc2cccc(C(C)=O)c2)cc1 (stereo unspecified)	-6.17
COc1cc(C)nc(N2CCN(C(=O)CCc3ccsc3)CC2)n1	-4.26
CCN1CCC(NC(=O)CN2CCCCC2Cn2cccn2)CC1 (stereo unspecified)	-4.33
NC(=O)CCn1ccc(NC(=O)c2ccc(Br)o2)n1	-5.23
NC1CCN(C(=O)c2c(F)cccc2Br)CC1	-15.6
